Measurements as given in patent publication US20210077570A1, “COMPOSITION COMPRISING A POLYMYXIN AND TEICOPLANIN” (GALENUS G.H. AG, priority 2018, published 2021).
Like-named read-outs stand apart in the source and are kept apart here. Positions of bridges follow the written chain, without caps; N, C: chain ends. Non-standard residues stand in square brackets, D forms with d. Residues, ends and D or L forms follow the SMILES beside them. *: point of attachment. Heptanoyl(5-Me) = CCC(C)CCCC(=O)*; Dab = NCC[C@H](N)C(=O)O

What was measured:
[1] = tested on: stationary bacteria from biofilm; assay: Elimination of stationary bacteria from biofilm (catheter piece in CAMHB); type: cell-based; conditions: for Elimination of bacteria from biofilm: conclusion, TEC alone in case a Gram-positive strain is tested; for Colony counts, incubated with as compared without a catheter piece / Increase (at least two dilution steps) of MIC, incubated with as compared without a catheter piece: tubes showing no gross turbidity; for Colony counts, incubated with as compared without a catheter piece: after centrifugation, any of the strains tested, TEC mono in case a Gram-positive strain is tested; for Increase (at least two dilution steps) of MIC, incubated with as compared without a catheter piece: MIC of CS, or of TEC in case a Gram-positive strain is tested
Method: To test the elimination of stationary bacteria from biofilm in vitro in CAMHB comparing combination versus monotherapy the same teicoplanin and colistin (serum) concentrations derived from pharmacokinetic studies are used as above.
Each of the total 16 sets as above is performed in duplicates. Each tube is filled with 5 ml CAMHB and in one of each duplicates a 2 cm long piece of a plastic catheter is inserted. Then all tubes are inoculated with the test strain and incubated aerobically at ambient air at 37° C. overnight (16-24 h). The tubes are removed from the incubator and the appropriate blank, mono or combination drug concentrations to be tested are added to each tube and the tubes are incubated aerobically at ambient air at 37° C. for an additional 24 h. The tubes are removed from the incubator and vortexed for about 10 min. Thereafter the catheter pieces from the corresponding one of the duplicates are removed.
From tubes showing growth with turbidity the MIC of CS or TEC in case of testing Gram-positive bacteria for the test strains is determined as above and compared to the original MIC. All tubes showing growth or no growth according to turbidity are centrifuged for 10 min at 3000 rpm and about 100 μL of the sediment is transferred onto IsoSensitest agar plate supplemented with 5% blood (Oxoid) and containing concentrations of CS of 4 mg/L, 8 mg/L, 16 mg/L, and 32 mg/L—or TEC of 4 mg/L, 8 mg/L, 16 mg/L in case a Gram-positive strain is tested. After overnight incubation the number of CFUs growing on the plates containing different CS concentrations—or TEC concentrations in case a Gram-positive strain is tested—are counted.

A. junii 1397597 = assay: Checkerboard analysis MIC/FIC and MBC/FBC, colistin sulphate plus teicoplanin; type: cell-based; conditions: agent alone, CAMHB, inoculum 5*10^5 CFU/ml; for MBC: A. junii; for MIC: A. junii 1397597, 24 h
Method: (§1) Checkerboard analysis to determine minimal inhibitory concentration (MIC)/fractional inhibitory concentration (FIC) and minimal […] (MBC)/fractional […] (FBC) values of colistin sulphate (CS) plus teicoplanin (TP) for 6 Gram-negative strains with a bacterial load 5(1−10)*10^5 CFU/ml in a cation-adjusted Mueller-Hinton broth (CAMHB). • a. Antimicrobial stock solutions were prepared using sterile distilled water • b. CS was added along the ordinate; TP was added along the abscissa to 96 well, flat bottom, polystyrene panels with no treatment. Colistin alone was tested in triplicates. • c. Serial 2-fold dilutions starting with 640 μg/ml CS and 640 μg/ml TP were made; 15 μl volume of the serial dilutions were added for each agent to the appropriate wells; final volume at 30 μl • d. For each agent tested alone an additional 15 μl media was added to the well. 30 μl were added in control wells where none of the agent was tested. The negative control well contains 150 μl media without any additions • e. From an overnight bacterial culture in tryptic soy broth, 100 μl was added to 10 mL of fresh tryptic soy broth. This was then incubated at 37° C. for 1.5 hour at 180 rpm. • f. Bacteria in 120 μl CAMHB were added to each well (end concentration 5(1−10)*10^5 CFU/ml) • g. Plates were incubated at 37° C. in an ambient air incubator for 24 h • h. Turbidity at OD600 is determined with a plate photometer • i. By using a one-time inoculator 3 μl from each well of the 96-well plate were transferred to three blood agar plates. The plates were incubated over night at 37° C. in an ambient air incubator • j. MIC values are defined as lowest concentration which restricts bacterial growth to OD600≤0.1 • k. MBC values were determined by visual reading the lowest concentration which inhibits 99.9% of the growth of bacteria in the wells • l. Determination of the fractional inhibitory concentration (FIC) index and fractional bactericidal concentration (FBC) index and characterization of antimicrobial interactions was assessed • FIC calculation was carried out as: (MIC of drug A, tested in combination)/(MIC of drug A, tested alone)+(MIC of drug B, tested in combination)/(MIC of drug B, tested alone). FBC calculation was carried out just as well • Interactive categories were calculated from checkerboard analysis using MIC results from testing each agent alone and MIC results from the combination wells adjacent to the wells with growth in them […]
b. Indifference; FIC/FBC>0.5 to <4.0 c. Antagonism; FIC/FBC≥4.0 a. A. junii 1391597 (IHMA), colistin resistant

A. haemolyticus 1655843 = assay: as above; type: cell-based; conditions: agent alone, CAMHB, inoculum 5*10^5 CFU/ml; for MBC: A. haemolyticus
Method: as §1, with “By using a one-time inoculator 3 μl from each well of the 96-well plate were transferred to three blood agar plates. The plates were incubated over night at 37° C. in an ambient air incubator • j. MIC values are defined as lowest concentration which restricts bacterial growth to OD600≤0.1 • k. MBC values were determined by visual reading the lowest concentration which inhibits 99.9% of the growth of bacteria in the wells • l.” left out

[2] = cited from earlier work

Compound | Elimination of bacteria from biofilm [1] | Colony counts, incubated with as compared without a catheter piece [1] | Increase (at least two dilution steps) of MIC, incubated with as compared without a catheter piece [1] | MBC (A. junii 1397597; Acinetobacter junii, 1397597, read-out: MBC) | MIC (A. junii 1397597; Acinetobacter junii, read-out: MIC) | MBC (A. haemolyticus 1655843; Acinetobacter haemolyticus, 1655843, read-out: MBC) | terminal half-life, median (range) ([2]; Antony et al 1991) | terminal half-life, mean (±SD) ([2]; Outman et al 1990) | MIC (A. junii 1397597) | MBC (A. junii 1397597) | MIC (A. haemolyticus 1655843; A. haemolyticus 1655843, 24 h) | MBC (A. haemolyticus 1655843)
CCC(C)CCCC(=O)N[C@@H](CCN)C(=O)N[C@H](C(=O)N[C@@H](CCN)C(=O)N[C@H]1CCNC(=O)[C@H]([C@@H](C)O)NC(=O)[C@H](CCN)NC(=O)[C@H](CCN)NC(=O)[C@H](CC(C)C)NC(=O)[C@@H](CC(C)C)NC(=O)[C@H](CCN)NC1=O)[C@@H](C)O (stereo partly drawn) [CS, colistin sulphate] ({Heptanoyl(5-Me)}-[Dab]T[Dab][Dab][Dab][dL]L[Dab][Dab]T; lactam 4-C) | not so well the case | higher colony counts | about one third | 8 µg/mL | 2 µg/mL | > 16 µg/mL | – | – | – | – | – | –
teicoplanin [TP] | not so well the case | higher colony counts | about one third | – | – | – | 168 (111-278) h | 157 (±93) h | >64 µg/mL | >64 µg/mL | >64 µg/mL | >64 µg/mL
